Ends that are not written are not given here.
Legend:
mImpα2 [1] = biological target: T1, mImpα2 (Mus musculus, UniProt P52293); test: Microscale thermophoresis (MST); assay type: binding; conditions: for Hill Coeff.: Hill equation fit, mean ± SD of three experiments; for Kd: RED-NHS-labelled mImpα2 60 nM, NLS 250 μM–7.6 nM, 20 mM Tris–HCl, 127 mM NaCl, pH 8.0, 0.5% Tween-20, mean ± SD of three experiments, read-out: KD, 1-binding site fitted model
T1 construct: MImpα2, residues 70–529, was co‐crystallized with each NLS analog; His-tag; made in house; host or cells: Escherichia coli BL21 (DE3)
Protocol: Microscale thermophoresis (MST) experiments were conducted using the Monolith NT.115 (Nanotemper, Germany). The RED‐NHS 2nd generation Nanotemper labeling kit (MO‐L011) was used to label mImpα2 in 20 mM Tris–HCl and 127 mM NaCl at pH 8.0. Ten microliter of RED‐NHS‐reacted mImpα2 at 60 nM was titrated against a serial 1:1 dilution (250 μM–7.6 nM) of 10 μL of NLS containing 0.5% Tween‐20, and the mixture was pipetted into 16 MST capillaries contained in a single cartridge. The samples were processed using default settings and followed the manufacturer's protocol. The binding model fits are detailed in Data S1.
A two-binding site and Hill fitting model were also performed by using the following equation in GraphPad. The experiments were repeated three times and the calculated affinity values were reported as the mean equilibrium KD ± standard deviation.
One binding site equation [11]:
Y= Et+Lt+KD- (Et+Lt+KD)2- 4EtLt2Et
Where Lt is the total ligand concentration; protein concentration is Et; KD is the dissociation constant or binding affinity.
Two binding site equation [11]: […]
Where KD1and KD2are the dissociation constants for binding site 1 and 2.
Where L is known, and cooperativity is explicitly reported as the Hill coefficient (n) […].

mImpα2 [2] = biological target: T1, mImpα2; test: Apparent NLS–mImpα2 complex stability monitored by CD (thermal denaturation); assay type: binding; conditions: for T°: CD thermal denaturation of mImpα2 in the presence of the ligand (mImpα2 alone 36.35); for ∆H°u (T°): CD thermal denaturation of mImpα2 with ligand, Van't Hoff method; for ΔG°u (25°C) / ΔG°u (37°C) / ΔΔG°u (25°C) / ΔΔG°u (37°C): CD; for ΔG°u (25°C) / ΔG°u (37°C): mImpα2 with ligand; for ΔΔG°u (25°C) / ΔΔG°u (37°C): relative to mImpα2 alone
Protocol: In the presence of TAF8 NLS, mImpα2 was stabilized, evidenced by the increase in temperature denaturation, shift in stability curves, and the reduction of the unfolded state (Figures S5a–c and 5a). The analogs also stabilized mImpα2, albeit to a lesser extent than TAF8 NLS.
CD measurements were conducted as previously described, including the determination of free energy using the Van't Hoff method (Jean‐Francois et al. [2003]). Fitting details are in Data S1.

[3] = Solubility of the synthesized peptides in water; conditions: synthesized peptide
importin‐α = conditions: 1:1 stoichiometry; ref Trowitzsch et al. [2015]; read-out: Dissociation constant (KD) by ITC; cited from earlier work
From the text: The general transcription factor TFIID is essential for RNA polymerase II transcription initiation in eukaryotic cells. This megadalton protein complex, composed of several TATA‐binding‐associated factors (TAFs), is assembled into a functional transcription factor in the nucleus (Thomas and Chiang [2006]). […] The Berger group recently elucidated how an essential TFIID subcomplex consisting of TAF2, TAF8, and TAF10 is assembled in the cytoplasm (Trowitzsch et al. [2015]). […] Trowitzsch et al. originally reported K D value for TAF8 NLS of ~10 μM with 1:1 stoichiometry (Trowitzsch et al. [2015]). […] In c ...

Hela cells = test: Fluorescence microscopy of nuclear localization of EGFP-NLS constructs, Hela; assay type: cell-based; conditions: Hela cells transfected with pCIneoEGFP constructs (EGFP fusions), 24 h post-transfection
Protocol: The plasmids, cloning, and cell culture transfection methods are described in Data S1. Cells were fixed with 3% paraformaldehyde (Electron Microscopy Sciences, Cat#15710) for 15 min at room temperature; then rinsed thoroughly with PBS. Nuclear staining was performed using 1 μg/mL DAPI (Sigma, Cat#D9542) in PBS. Following staining, cells were rinsed again with PBS and mounted with glass coverslips using Vectashield Antifade Mounting Medium (Vector Laboratories, Cat#H‐1000).
Fluorescence imaging was performed using a Zeiss AxioImager.M2 microscope (RRID:SCR_024706) equipped with a 40× EC Plan‐NeoFluar (1.3 NA; oil) objective, X‐Cite XYLIS LED illumination system, and a Zeiss AxioCam mRm CCD monochrome camera. Image acquisition and initial processing were performed using ZEN Blue software (RRID:SCR_013672), and additional analyses were performed using Fiji (ImageJ; RRID:SCR_002285). For each experimental condition, 15 randomly selected fields of view were imaged. Line overlay fluorescence intensity was quantified using the line profile tool in Fiji. A straight line across the entire cell length was drawn and centered on the nucleus. The “Plot Profile” function was used to extract pixel intensity values along the line. Three cells were analyzed per condition, and the data were presented as mean fluorescence intensity values. […]

Substance	Hill Coeff. (mImpα2 [1])	Kd (mImpα2 [1]) [µM]	T° (mImpα2 [2]) [°C]	∆H°u (T°) (mImpα2 [2]) [kcal/mol]	ΔG°u (25°C) (mImpα2 [2]) [kcal/mol]	ΔG°u (37°C) (mImpα2 [2]) [kcal/mol]	ΔΔG°u (25°C) (mImpα2 [2]) [kcal/mol]	ΔΔG°u (37°C) (mImpα2 [2]) [kcal/mol]	Soluble in H20 [3]	Kd (importin‐α) [µM]	Nuclear localization (fluorescence) (Hela cells)
H-PEKKPKIDE-OH [A3]	0.71 ± 0.30	10.6 ± 2.14	40.55	94.9	4.3	1.1	1.8	1.3			
PVKKPKIRR [TAF8]	3.1 ± 0.39	1.21 ± 0.313	47.45	170	11.1	5.4	8.6	5.6	Yes	~10	
EVKKPKIDE [A1]		13.8 ± 2.31									
PVKKEKIEE [A2]		15.9 ± 3.1							Yes		
PVKKEKIDE [A4]	0.64 ± 0.24	16.7 ± 1.96	37.15	87.9	3.2	0.1	0.7	0.3			outperformed A3 in promoting nuclear localization
